The results in this text go back to US12371428B2 (Exelixis, Inc., priority 2019, dated 2025).

SMILES strings stand for the structures. Where two headings read alike, the source gives them in different places.

Assay [1] has as its target Human KDR (residues 790-1356) (Homo sapiens (Human), UniProt P35968). In words: Human KDR kinase assay, HTRF KinEase (Example B-2). The assay is classed as biochemical. In short, it runs like this: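 Human KDR residues 790-1356 (0.1 ng/well) in buffer with 5 mM MgCl2, 1 mM MnCl2, 1 mM DTT, biotinylated peptide substrate, ATP at Km (4.0 μM), 3% DMSO, 10 compound concentrations; 40 min, room temperature. EDTA stop, streptavidin-XL665/Eu-TK antibody HTRF read 665/620 nm; 4-parameter IC50.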
On the technique in general: TR-FRET usually uses a lanthanide donor and a delayed reading to cut background.

The target of assay [2] is Human MER (residues 528-999) (Homo sapiens (Human), UniProt Q12866). In words: Human Mer kinase assay, HTRF KinEase (Example C-2). The assay is classed as biochemical. The essentials:
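IC50 values from 10 concentrations via 4-parameter logistic fit of […], with DMSO as 100% and 1 μM reference compound as 0% activity. Reaction: MER kinase domain 528-999, 1 ng/well, 40 μM ATP (Km), biotin peptide, 5 mM MgCl2, 1 mM DTT, 3% DMSO, room temperature 60 min; HTRF streptavidin-XL665/Eu-antibody detection.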

Assay [3] deals with Human MET (residues 956-1390) (Homo sapiens (Human), UniProt P08581). In words: Human Met kinase assay, HTRF KinEase (Example D-2). The assay is classed as biochemical. Conditions: read-out: c-Met IC50. In short, it runs like this: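 IC50 values come from a 4-parameter logistic fit of the […] fluorescence ratio, set between DMSO (100%) and reference compound at 1 μM (0%). Reactions held MET 956-1390 at 0.1 ng/well, ATP at Km, biotinylated peptide, 5 mM MgCl2, 1 mM MnCl2, 1 mM DTT and 3% DMSO, and ran 40 min at room temperature before streptavidin-XL665/Eu-antibody detection.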

In assay [4] the target is Met (phospho-Met, HGF-stimulated PC-3 prostate cancer cells) (Homo sapiens (Human), UniProt P08581). In words: Met autophosphorylation ELISA in PC-3 cells (Example F). The assay is classed as cell-based. The note with it: cellular activity; Met autophosphorylation ELISA in PC-3 cells; read-out: c-Met IC50. In short, it runs like this: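 Compounds were tested on HGF-stimulated PC-3 cells. After 24 h culture and 3 h serum starvation, cells got compound for 1 h and 100 ng/mL HGF for 10 min, and Met tyrosine phosphorylation was measured by ELISA.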
On the technique in general: An ELISA detects its analyte on a solid surface through an enzyme-linked reagent.

For assay [5], the target named is KDR (phospho-KDR, VEGF165-stimulated HUVEC cells) (Homo sapiens (Human), UniProt P35968). In words: KDR autophosphorylation ELISA in HUVEC cells (Example G). The assay is classed as cell-based. The note with it: cellular activity; KDR autophosphorylation ELISA in HUVEC cells. The essentials:
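Cells seeded, grown 24 h at 37 °C, starved 24 h serum-free; cpd 8-pt curve, 0.3% DMSO, 1 h; VEGF165 100 ng/mL, 5 min; cold PBS wash, lysis with orthovanadate and protease/phosphatase inhibitors; pKDR ELISA; IC50 by 4-parameter logistic regression.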

The target in assay [6] is AXL (phospho-AXL, Gas6-stimulated A-172 glioblastoma cells) (Homo sapiens (Human), UniProt P30530). In words: AXL autophosphorylation ELISA in A-172 cells (Example E). Conditions: cellular activity; AXL autophosphorylation ELISA in A-172 cells; read-out: Axl IC50. The assay is classed as cell-based. As to the method:
A-172 cells were incubated at 37° C., 5% CO2 for 24 h and then starved for 24 h in serum-free medium. Test compounds were serially diluted to produce an 8-point dose curve in fresh serum-free medium to a final concentration of 0.3% DMSO (vehicle) and added to the cells and incubated for 1 h. […] Lysates were collected and 100 μL/well added into the human phospho-AXL DuoSet IC ELISA (R&D Systems #DYC2228-2). […] Positive control wells (100% activity) contained Gas6-stimulated, DMSO-treated cell lysates. Negative control wells (0% activity) contained Gas6-stimulated, reference inhibitor-treated cell lysates. IC50 values were calculated by nonlinear regression analysis using a 4-parameter logistic curve fit in ActivityBase XE (IDBS).

Assay [7] concerns the target Mer (phospho-Mer, MERTK-transfected 293A cells) (Homo sapiens (Human), UniProt Q12866). In words: Mer autophosphorylation ELISA in transient transfected 293A cells (Example H). The assay is classed as cell-based. Conditions: cellular activity; Mer autophosphorylation ELISA in transient transfected 293A cells. In short, it runs like this: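 Inhibition of cellular Mer autophosphorylation is determined in 293A cells transiently expressing human MERTK after 1 h compound exposure (8 concentrations, serum-free, 0.3% DMSO). Phospho-Mer in clarified lysates is measured by ELISA, with DMSO and reference-inhibitor wells defining the 100% and 0% activity limits.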

Where [8] appears, read: protocol of Example B-2 (other compounds).
Setting [9] is: protocol of Example C-2 (other compounds).
Setting [10] is: protocol of Example D-2 (other compounds).

Human MER (residues 528-999), sequence (Q12866 528-999): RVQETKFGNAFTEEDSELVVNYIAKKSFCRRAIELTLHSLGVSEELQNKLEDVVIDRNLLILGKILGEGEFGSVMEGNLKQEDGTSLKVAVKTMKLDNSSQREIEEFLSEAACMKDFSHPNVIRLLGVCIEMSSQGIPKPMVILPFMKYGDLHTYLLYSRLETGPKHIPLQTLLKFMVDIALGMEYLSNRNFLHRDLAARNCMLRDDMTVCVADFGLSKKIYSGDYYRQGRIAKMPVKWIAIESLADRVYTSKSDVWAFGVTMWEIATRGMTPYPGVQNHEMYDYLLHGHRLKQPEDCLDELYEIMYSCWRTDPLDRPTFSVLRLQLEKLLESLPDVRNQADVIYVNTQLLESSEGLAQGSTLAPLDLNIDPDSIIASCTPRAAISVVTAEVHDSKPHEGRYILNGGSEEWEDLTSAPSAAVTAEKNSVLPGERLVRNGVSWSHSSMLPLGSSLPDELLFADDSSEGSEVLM
Mer (phospho-Mer, MERTK-transfected 293A cells), sequence (Q12866 21-999): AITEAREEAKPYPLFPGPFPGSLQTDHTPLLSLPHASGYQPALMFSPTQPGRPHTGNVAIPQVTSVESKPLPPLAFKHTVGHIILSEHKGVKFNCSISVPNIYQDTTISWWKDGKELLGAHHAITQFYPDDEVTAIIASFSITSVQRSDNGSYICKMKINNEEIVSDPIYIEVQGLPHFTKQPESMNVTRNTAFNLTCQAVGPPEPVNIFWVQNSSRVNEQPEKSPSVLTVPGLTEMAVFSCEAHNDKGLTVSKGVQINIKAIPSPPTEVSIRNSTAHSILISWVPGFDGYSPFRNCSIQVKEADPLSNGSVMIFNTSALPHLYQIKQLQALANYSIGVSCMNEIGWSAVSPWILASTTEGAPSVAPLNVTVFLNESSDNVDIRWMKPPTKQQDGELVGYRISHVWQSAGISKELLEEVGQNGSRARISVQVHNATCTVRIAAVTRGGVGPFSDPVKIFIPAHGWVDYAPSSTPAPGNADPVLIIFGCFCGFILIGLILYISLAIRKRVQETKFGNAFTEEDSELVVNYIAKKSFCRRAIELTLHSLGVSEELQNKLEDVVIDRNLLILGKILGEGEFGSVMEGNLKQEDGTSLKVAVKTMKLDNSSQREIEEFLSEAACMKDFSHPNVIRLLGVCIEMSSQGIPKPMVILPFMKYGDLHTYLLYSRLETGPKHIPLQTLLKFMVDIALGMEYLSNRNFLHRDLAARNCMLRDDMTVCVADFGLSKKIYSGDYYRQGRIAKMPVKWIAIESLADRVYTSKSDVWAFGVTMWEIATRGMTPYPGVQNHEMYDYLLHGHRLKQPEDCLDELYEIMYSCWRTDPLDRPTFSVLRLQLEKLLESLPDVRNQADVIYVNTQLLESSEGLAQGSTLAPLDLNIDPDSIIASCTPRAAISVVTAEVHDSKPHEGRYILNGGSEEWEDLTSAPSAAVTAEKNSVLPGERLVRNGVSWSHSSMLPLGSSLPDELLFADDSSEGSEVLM
Human MET (residues 956-1390), sequence (P08581 956-1390): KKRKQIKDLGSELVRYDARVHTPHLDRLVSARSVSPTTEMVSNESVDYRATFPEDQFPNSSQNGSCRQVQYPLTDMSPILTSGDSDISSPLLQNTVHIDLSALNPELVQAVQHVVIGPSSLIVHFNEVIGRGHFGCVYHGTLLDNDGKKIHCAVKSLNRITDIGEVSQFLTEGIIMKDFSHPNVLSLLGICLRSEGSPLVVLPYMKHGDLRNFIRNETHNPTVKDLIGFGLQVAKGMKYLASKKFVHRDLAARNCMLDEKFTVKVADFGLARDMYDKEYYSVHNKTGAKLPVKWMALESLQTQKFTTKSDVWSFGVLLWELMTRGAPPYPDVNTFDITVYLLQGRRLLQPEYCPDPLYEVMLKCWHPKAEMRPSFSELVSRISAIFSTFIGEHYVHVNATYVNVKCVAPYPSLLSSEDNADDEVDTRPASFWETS
KDR (phospho-KDR, VEGF165-stimulated HUVEC cells), sequence (P35968 20-1356): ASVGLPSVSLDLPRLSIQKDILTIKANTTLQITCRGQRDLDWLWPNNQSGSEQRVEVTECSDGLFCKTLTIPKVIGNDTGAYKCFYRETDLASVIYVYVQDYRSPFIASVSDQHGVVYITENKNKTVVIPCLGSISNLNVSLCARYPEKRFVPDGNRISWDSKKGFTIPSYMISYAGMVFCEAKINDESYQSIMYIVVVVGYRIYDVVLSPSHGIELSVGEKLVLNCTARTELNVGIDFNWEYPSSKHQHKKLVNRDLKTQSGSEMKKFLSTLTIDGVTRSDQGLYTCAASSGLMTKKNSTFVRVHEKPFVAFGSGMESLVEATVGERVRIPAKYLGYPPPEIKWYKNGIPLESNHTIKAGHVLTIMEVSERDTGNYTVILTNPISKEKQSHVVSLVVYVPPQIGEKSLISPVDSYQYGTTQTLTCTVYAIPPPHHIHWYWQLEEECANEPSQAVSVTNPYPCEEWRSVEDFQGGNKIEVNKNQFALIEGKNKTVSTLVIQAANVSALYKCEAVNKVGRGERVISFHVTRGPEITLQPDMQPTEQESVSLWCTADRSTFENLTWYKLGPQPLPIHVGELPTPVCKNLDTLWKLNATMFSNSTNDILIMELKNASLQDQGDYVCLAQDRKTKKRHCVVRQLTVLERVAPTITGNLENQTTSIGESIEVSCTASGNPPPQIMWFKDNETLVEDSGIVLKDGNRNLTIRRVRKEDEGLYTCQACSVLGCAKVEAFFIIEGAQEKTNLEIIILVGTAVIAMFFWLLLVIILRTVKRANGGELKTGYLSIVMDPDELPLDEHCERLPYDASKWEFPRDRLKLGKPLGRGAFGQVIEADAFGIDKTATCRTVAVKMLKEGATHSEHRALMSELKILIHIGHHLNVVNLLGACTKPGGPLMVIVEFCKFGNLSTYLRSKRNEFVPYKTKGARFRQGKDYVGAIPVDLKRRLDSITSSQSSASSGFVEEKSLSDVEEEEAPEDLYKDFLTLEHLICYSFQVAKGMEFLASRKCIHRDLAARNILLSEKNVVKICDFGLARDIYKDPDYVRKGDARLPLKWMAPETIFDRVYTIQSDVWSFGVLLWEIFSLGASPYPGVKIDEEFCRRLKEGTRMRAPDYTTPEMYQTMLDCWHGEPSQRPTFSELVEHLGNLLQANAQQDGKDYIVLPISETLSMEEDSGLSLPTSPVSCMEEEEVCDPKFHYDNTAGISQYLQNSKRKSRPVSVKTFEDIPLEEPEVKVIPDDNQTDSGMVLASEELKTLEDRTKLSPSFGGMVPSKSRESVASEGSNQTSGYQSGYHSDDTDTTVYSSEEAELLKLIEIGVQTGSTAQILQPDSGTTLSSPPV
AXL (phospho-AXL, Gas6-stimulated A-172 glioblastoma cells), sequence (P30530 26-894): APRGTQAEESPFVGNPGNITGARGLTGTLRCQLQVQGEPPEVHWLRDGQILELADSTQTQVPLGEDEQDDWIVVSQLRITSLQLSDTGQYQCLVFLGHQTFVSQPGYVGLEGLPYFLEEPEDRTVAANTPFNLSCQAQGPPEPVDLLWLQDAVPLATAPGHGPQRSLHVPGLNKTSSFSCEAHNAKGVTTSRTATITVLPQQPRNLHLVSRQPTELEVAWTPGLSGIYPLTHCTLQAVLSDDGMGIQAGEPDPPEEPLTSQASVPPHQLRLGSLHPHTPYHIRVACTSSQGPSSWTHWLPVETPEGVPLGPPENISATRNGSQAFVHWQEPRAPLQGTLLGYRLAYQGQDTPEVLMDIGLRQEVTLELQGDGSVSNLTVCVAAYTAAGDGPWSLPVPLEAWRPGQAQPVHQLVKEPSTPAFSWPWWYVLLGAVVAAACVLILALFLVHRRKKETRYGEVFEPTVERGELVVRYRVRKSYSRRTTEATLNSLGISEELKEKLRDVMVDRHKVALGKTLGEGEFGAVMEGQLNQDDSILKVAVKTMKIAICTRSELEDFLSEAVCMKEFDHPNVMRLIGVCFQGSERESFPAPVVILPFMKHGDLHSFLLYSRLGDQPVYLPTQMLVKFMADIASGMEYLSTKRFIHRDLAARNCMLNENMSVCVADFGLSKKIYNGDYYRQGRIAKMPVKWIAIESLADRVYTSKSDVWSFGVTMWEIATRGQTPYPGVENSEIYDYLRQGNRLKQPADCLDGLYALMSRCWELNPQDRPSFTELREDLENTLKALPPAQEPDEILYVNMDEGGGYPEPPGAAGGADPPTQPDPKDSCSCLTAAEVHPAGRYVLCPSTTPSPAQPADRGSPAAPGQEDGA
Human KDR (residues 790-1356), sequence (P35968 790-1356): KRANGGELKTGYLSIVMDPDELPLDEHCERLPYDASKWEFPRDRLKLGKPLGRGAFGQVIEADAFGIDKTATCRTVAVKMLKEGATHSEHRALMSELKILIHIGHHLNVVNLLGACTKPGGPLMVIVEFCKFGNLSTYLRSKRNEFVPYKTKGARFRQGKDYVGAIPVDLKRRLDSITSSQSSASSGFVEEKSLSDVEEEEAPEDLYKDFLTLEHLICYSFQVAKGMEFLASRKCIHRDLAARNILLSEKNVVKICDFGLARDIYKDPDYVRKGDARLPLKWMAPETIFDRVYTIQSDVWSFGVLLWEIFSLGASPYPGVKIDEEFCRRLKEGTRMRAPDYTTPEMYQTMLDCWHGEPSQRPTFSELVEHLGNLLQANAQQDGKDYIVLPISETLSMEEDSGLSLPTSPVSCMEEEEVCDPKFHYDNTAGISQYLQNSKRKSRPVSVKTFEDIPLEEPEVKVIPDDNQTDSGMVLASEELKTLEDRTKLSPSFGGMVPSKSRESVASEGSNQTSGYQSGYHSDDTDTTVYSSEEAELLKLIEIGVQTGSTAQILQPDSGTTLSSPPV

The IC50 is the point on the concentration scale where inhibition reaches its midpoint. Turning to `Cc1ncc(C(=O)Nc2ccc(Oc3ccnc4cc(F)cnc34)c(F)c2)c(O)c1-c1ccc(F)cc1` [Compound 160, N-[3-Fluoro-4-[(7-fluoro-1,5-naphthyridin-4-yl)oxy]phenyl]-5-(4-fluorophenyl)-4-hydroxy-6-methylpyridine-3-carboxamide], the IC50 in assay [1] (setting [8]), in assay [2] (setting [9]), in assay [3] (setting [10]), in assay [4] and in assay [5] was less than 100 nM in each case.

On to `COc1cc2nccc(Oc3ccc(NC(=O)c4c(C)nc(C)c(-c5ccc(F)cc5F)c4O)cc3F)c2nc1OC` [Compound 209, 5-(2,4-Difluorophenyl)-N-[4-[(6,7-dimethoxy-1,5-naphthyridin-4-yl)oxy]-3-fluorophenyl]-4-hydroxy-2,6-dimethylpyridine-3-carboxamide], for which the IC50 in assay [6], in assay [4] and in assay [7] was less than 100 nM in each case.

As for `COc1cnc2c(Oc3ccc(NC(=O)c4c(C)nc(C)c(-c5ccc(F)cc5F)c4O)cc3F)ccnc2c1` [Compound 210, 5-(2,4-Difluorophenyl)-N-[3-fluoro-4-[(7-methoxy-1,5-naphthyridin-4-yl)oxy]phenyl]-4-hydroxy-2,6-dimethylpyridine-3-carboxamide], the IC50 in assay [6], in assay [4] and in assay [7] was less than 100 nM in each case.

In the case of `COCc1nc(C)c(-c2ccc(F)cc2F)c(O)c1C(=O)Nc1ccc(Oc2ccnc3cc(OC)cnc23)c(F)c1` [Compound 211, 5-(2,4-Difluorophenyl)-N-[3-fluoro-4-[(7-methoxy-1,5-naphthyridin-4-yl)oxy]phenyl]-4-hydroxy-2-(methoxymethyl)-6-methylpyridine-3-carboxamide], the IC50 in assay [6], in assay [4] and in assay [7] was less than 100 nM throughout.

In the case of `COCc1nc(C)c(-c2ccc(F)cc2F)c(O)c1C(=O)Nc1ccc(Oc2ccnc3cc(OC)c(OC)nc23)c(F)c1` [Compound 212, 5-(2,4-Difluorophenyl)-N-[4-[(6,7-dimethoxy-1,5-naphthyridin-4-yl)oxy]-3-fluorophenyl]-4-hydroxy-2-(methoxymethyl)-6-methylpyridine-3-carboxamide], the IC50 in assay [6], in assay [4] and in assay [7] was less than 100 nM in each case.

With `CCOCc1nc(C)c(-c2ccc(F)cc2)c(O)c1C(=O)Nc1ccc(Oc2ccnc3cc(OC)c(OC)nc23)c(F)c1` [Compound 213, N-[4-[(6,7-Dimethoxy-1,5-naphthyridin-4-yl)oxy]-3-fluorophenyl]-2-(ethoxymethyl)-5-(4-fluorophenyl)-4-hydroxy-6-methylpyridine-3-carboxamide], the half-inhibitory concentration (IC50) in assay [6], in assay [4] and in assay [7] was less than 100 nM in each case.

As to `CCOCc1nc(C)c(-c2ccc(F)cc2)c(O)c1C(=O)Nc1ccc(Oc2ccnc3cc(OC)cnc23)c(F)c1` [Compound 214, 2-(Ethoxymethyl)-N-[3-fluoro-4-[(7-methoxy-1,5-naphthyridin-4-yl)oxy]phenyl]-5-(4-fluorophenyl)-4-hydroxy-6-methylpyridine-3-carboxamide], the IC50 in assay [6], in assay [4] and in assay [7] was less than 100 nM throughout.

Regarding `COCc1c(C(=O)Nc2ccc(Oc3ccnc4cc(OC)c(OC)nc34)c(F)c2)c(=O)c(-c2ccc(F)cc2)c(C)n1C` [Compound 336, N-[4-[(6,7-dimethoxy-1,5-naphthyridin-4-yl)oxy]-3-fluorophenyl]-5-(4-fluorophenyl)-2-(methoxymethyl)-1,6-dimethyl-4-oxopyridine-3-carboxamide], the IC50 in assay [6], in assay [4] and in assay [7] was less than 100 nM each time.

Consider `COc1cc2nccc(Oc3ccc(NC(=O)c4cc(F)c(C)n(-c5ccc(F)cc5)c4=O)cc3F)c2nc1OC` [Compound 337, N-[4-[(6,7-dimethoxy-1,5-naphthyridin-4-yl)oxy]-3-fluorophenyl]-5-fluoro-1-(4-fluorophenyl)-6-methyl-2-oxopyridine-3-carboxamide], for which the IC50 in assay [6], in assay [4] and in assay [7] was less than 100 nM in each case.

`COc1cc2nccc(Oc3ccc(NC(=O)c4cc(F)c(C)n(-c5ccc(F)cc5)c4=O)cc3)c2nc1OC` [Compound 338, N-[4-[(6,7-dimethoxy-1,5-naphthyridin-4-yl)oxy]phenyl]-5-fluoro-1-(4-fluorophenyl)-6-methyl-2-oxopyridine-3-carboxamide]: the IC50 in assay [6], in assay [4] and in assay [7] was less than 100 nM in each case.

Turning to `COc1cc2nccc(Oc3ccc(NC(=O)c4cc(Br)c(C)n(-c5ccc(F)cc5)c4=O)cc3F)c2nc1OC` [Compound 366, 5-bromo-N-[4-[(6,7-dimethoxy-1,5-naphthyridin-4-yl)oxy]-3-fluorophenyl]-1-(4-fluorophenyl)-6-methyl-2-oxopyridine-3-carboxamide], the IC50 is 100 to 300 nM in assay [1] (setting [8]); less than 100 nM in assay [2] (setting [9]); 100 to 300 nM in assay [3] (setting [10]); less than 100 nM in assay [4]; less than 100 nM in assay [7].

`CNC(=O)c1cc2c(Oc3ccc(NC(=O)c4cnc(C)c(-c5ccc(F)cc5)c4O)cc3)ccnc2cn1` [Compound 398, 4-[4-[[5-(4-fluorophenyl)-4-hydroxy-6-methylpyridine-3-carbonyl]amino]phenoxy]-N-methyl-1,7-naphthyridine-6-carboxamide]: the IC50 in assay [6], in assay [4] and in assay [7] was less than 100 nM throughout.

With `Cc1ccc2nccc(Oc3ccc(NC(=O)c4c(C)nc(C)c(-c5ccc(F)cc5C)c4O)cc3)c2n1` [Compound 507, 5-(4-fluoro-2-methylphenyl)-4-hydroxy-2,6-dimethyl-N-[4-[(6-methyl-1,5-naphthyridin-4-yl)oxy]phenyl]pyridine-3-carboxamide], the IC50 in assay [1] (protocol of Example B-2) was more than 300 nM; in assay [2] (protocol of Example C-2), 100 to 300 nM; in assay [3] (protocol of Example D-2), less than 100 nM; in assay [5], less than 100 nM; in assay [7], 100 to 300 nM.

As to `Cc1cc(F)ccc1-c1c(C)ncc(C(=O)Nc2ccc(Oc3ccnc4cc(C(C)C)cnc34)cc2)c1O` [Compound 597, 5-(4-Fluoro-2-methylphenyl)-4-hydroxy-6-methyl-N-[4-[(7-propan-2-yl-1,5-naphthyridin-4-yl)oxy]phenyl]pyridine-3-carboxamide], the IC50 in assay [1] (protocol of Example B-2) is more than 300 nM; in assay [2] (protocol of Example C-2), more than 300 nM; in assay [3] (protocol of Example D-2), 100 to 300 nM; in assay [5] it was 100 to 300 nM.

As for `COc1cnc2c(Oc3ccc(NC(=O)c4cn(CCO)c(C)c(-c5ccc(F)cc5)c4=O)cc3F)ccnc2c1` [Compound 621, N-[3-Fluoro-4-[(7-methoxy-1,5-naphthyridin-4-yl)oxy]phenyl]-5-(4-fluorophenyl)-1-(2-hydroxyethyl)-6-methyl-4-oxopyridine-3-carboxamide], the IC50 in assay [1] (protocol of Example B-2) is more than 300 nM; in assay [2] (protocol of Example C-2), less than 100 nM; in assay [3] (protocol of Example D-2), less than 100 nM; in assay [5] it was 100 to 300 nM; in assay [7] it was 100 to 300 nM.
